Reference: US8557864B2, “Agent having neurotrophic factor-like activity” (Nagoya Industrial Science Research Institute, priority 2007, dated 2013)

Test system: mice
Assay: Voluntary alternation behavior test (Y-maze test) of mice administered with trimethyltin
Assay type: in vivo
Conditions: TMT 2 mg/kg weight intraperitoneally
Description: The voluntary alternation behavior test (Y-maze test) is one kind of a behavior test using a Y-shaped maze constituted with three arms. First, a mouse is placed on the tip of one arm out of the three arms, letting the mouse freely explore in the maze over 8 minutes, and arms where the mouse transferred are recorded in order. Then, the number of times of transferring to each arm (total arm selection number (total arm entries)) and the number of sequentially selecting three different arms (number of alternation behavior (number of spontaneous behavior)) are counted.
Trimethyltin (hereinafter referred to as “TMT”) is an organic metal compound having neurotoxicity, and acute nerve cell death is cased particularly in granular nerve cells of the hippocampus dentate gyrus, which thus affects memory and learning abilities of a mouse.
The voluntary alternation tests (Y-maze tests) were performed on 1) test groups to which the compound 8 was singly administered and 2) test groups to which TMT and the compound 8 were administered. In the test groups to which the compound 8 was singly administered, the compound 8 was dissolved in 0.1% DMSO to adjust a concentration so as to have each of the doses of 100 and 500 μg/kg and intraperitoneally injected to 6 mice in every administration example each in a dose of 0.25 mL. In 0 μg/kg weight administration examples of controls, 0.25 mL of a phosphoric acid buffer containing 0.1% DMSO was intraperitoneally injected in each time. The voluntary alternation tests (Y-maze tests) were performed on each of the administration groups after the elapse of 2 hours from intraperitoneal administration. In the test group in which TMT and the compound 8 were administered, TMT (2 mg/kg weight) was intraperitoneally administered to a mouse, and the compound 8 was intraperitoneally administered in the same manner as the test groups in which the compound 8 was singly administered after 2 days have passed, and the voluntary alternation test (Y-maze test) was performed after the elapse of 2 hours. FIG. 32 show the results. Significance tests were performed in a Turkey's test (*, ##) and a Student's t-test (++). “DAEE” denotes the compound 8.

SMILES	voluntary alternation behavior after TMT treatment
[CH3][Sn+]([CH3])[CH3] [TMT, Trimethyltin, reference compound]	significantly decreased

Test system: mice under chronic mild stress
Assay: Tail suspension test comparing compound 8 and fluvoxamine after chronic mild stress
Assay type: in vivo
Conditions: Exp. 2 (1 week after stress); compound 8 500 μg/kg, fluvoxamine 1000 μg/kg intraperitoneally once per day
Description: 7-week-old male ddY strain mice fed in one cage for 4 mice were first subjected to forced swimming for 15 minutes in the same manner as stress in Example 2 (behavior test of mice under stress) (1) described in the paragraph [0063] in the specification. Then, stress for 1 week using 3 kinds of cages was regarded as 1 cycle, and the stress was applied for 3 cycles (3 weeks) and chronic mild stress (CMS) was applied. The compound 8 and fluvoxamine were administered to mice immediately after stress in Exp. 1, 1 week after stress in Exp. 2, and 2 weeks after stress in Exp. 3, respectively, and tail suspension tests were carried out on the respective test groups. In each test group, the compound 8 was adjusted in concentration so as to have each of the doses of […] and fluvoxamine was adjusted in concentration so as to have a dose of 1000 μg/kg, by dissolving in 0.1% DMSO, and each dose of the compound 8 and fluvoxamine were intraperitoneally injected to mice once per day from the time immediately after stress. Further, to 7-week-old male ddY strain mice fed in one cage for 4 mice without stress, the compound 8 and fluvoxamine were administered to carry out the tail suspension tests in the same manner as the stressed mice. FIG. 31 show the result. A significance test was performed in a Student's t-test (*). […] “DAEE” denotes the compound 8 and “Flu” denotes fluvoxamine.

SMILES	effect on depressive symptom (immobility time)
COCCCC/C(=N\OCCN)c1ccc(C(F)(F)F)cc1 [fluvoxamine]	an effect could not be recognized

Same assay, conditions: Exp. 3 (2 weeks after stress); fluvoxamine 1000 μg/kg intraperitoneally once per day

SMILES	effect on depressive symptom (immobility time)
COCCCC/C(=N\OCCN)c1ccc(C(F)(F)F)cc1 [fluvoxamine]	recognized only in Exp. 3

Test system: MAP kinases
Assay: Measurement of activation of MAP kinases in cultured nerve cells (western immunoblotting)
Assay type: cell-based
Conditions: fetal rat cerebral cortex nerve cells, compound 500 μg/ml, 30 minutes, relative to control
Description: Activation of MAP kinases was measured on respective compounds in Table 1 including the compound obtained in Production Example with western immunoblotting as follows. Nerve cells were dispersed from a cerebral cortex of a 17-day-old fetal rat and the nerve cells were cultured in a Dulbecco's modified eagle medium (DMEM) containing 5%; fetal bovine serum for 1 day. A culture solution was exchanged to a serum-free medium (B27 supplement added Neurobasal, Invitrogen Corporation), and the nerve cells were cultured in a culture petri dish coated with polyornithine at a density of 20,000 to 40,000 cells/cm^2. Three days later, each of the compounds in Table 1 was added thereto, and culture for 30 minutes was continued. Then, cells were recovered on ice with a solution of a Tris-HCL buffer as a base containing a phosphatase inhibitor. The protein concentration of the obtained cell extraction was determined using a BCA Protein Assay Kit (TAKARABIO INC.), a constant amount (3 μg for MAP kinase measurement, 5 μg for phosphorylated MAP kinase measurement) of the protein was electrophoresed with a polyacrylic amide gel. The protein was transcribed to a PVDF membrane from the gel after electrophoresis, and western immunoblotting was carried out using the primary antibodies: an anti-MAP kinase antibody (Cell Signaling Technology, Inc.) and an antiphosphorylated MAP kinase antibody (Cell Signaling Technology, Inc.), respectively. Subsequently, an enzyme activity was subjected to color development by being reacted with the secondary antibody: an alkaline phosphatase labeled anti-rabbit IgG antibody (Promega KK) to measure MAP kinases and phosphorylated MAP kinases. In addition, each compound was dissolved in 0.7% DMSO and adjusted to have a concentration of 500 μg/ml. A control was added with a phosphoric acid buffer containing 0.1% DMSO in the same amount as the compound.
The above obtained concentration measurement of the electrophoresis gel band was digitalized by calculating an intensity with Image J (BioArts International, Inc.). The numerical value of MAP kinases of each compound was divided by the numerical value of the control's MAP kinases, and the numerical value of phosphorylated MAP kinases of each compound was divided by the numerical value of the control's phosphorylated MAP kinases to find a ratio of the MAP kinases of each compound to the control and a ratio of the phosphorylated MAP kinases of the each compound to the control. Then, the obtained ratio of the phosphorylated MAP kinases to the control was divided by the obtained ratio of the MAP kinases to the control to find a ratio of the phosphorylated MAP kinases to the MAP kinases and graphs were formed and shown in FIGS. 1 to 3. Compound 1, compound 6, compound 11, compound 16, compound 21 and compound 36 in Table 1 were used from products made by Wako Pure Chemical Industries, Ltd.

SMILES	ratio of phosphorylated MAP kinases to MAP kinases
CCCCCCC/C=C/C(=O)OC(C)C [Compound 54, trans-2-decenoic acid isopropyl ester]	twice or more
CCCCCCC/C=C/C(=O)O [Compound 6, trans-2-decenoic acid]	high activities
C=CCCCCCCCCC(=O)OC [Compound 22, trans-10-undecenoic acid methyl ester]	high activities
CCCCCCC/C=C/C(=O)OC [Compound 7, trans-2-decenoic acid methyl ester]	twice or more
CCOC(=O)CC(C)CCCC(C)C (stereo not drawn) [Compound 78, 3,7-dimethyloctanoic acid ethyl ester]	high activities
C=CCCCCCCCC(=O)OCC [Compound 13, trans-9-decenoic acid ethyl ester]	high activities
CCCCCCC/C=C/COC(=O)/C=C/CCCCCCC [Compound 47, trans-2-decenoic acid-trans-2-decenyl ester]	twice or more
CCOC(=O)/C=C(\C)CCC=C(C)C [Compound 77, geranic acid ethyl ester]	high activities
CCCCCCCCCC(=O)OC [Compound 2, decanoic acid methyl ester]	high activities
CCCCCCCCCC(=O)OCC [Compound 3, decanoic acid ethyl ester]	high activities
C=CCCCCCCCCC(=O)OCC [Compound 23, trans-10-undecenoic acid ethyl ester]	high activities
C=CCCCCCCCC(=O)OC [Compound 12, trans-9-decenoic acid methyl ester]	high activities
CCCCCCC/C=C/C(=O)OC1CCCCC1 [Compound 48, trans-2-decenoic acid cyclohexyl ester]	twice or more
CCCCCCC/C=C/C(=O)OCCCCCCCC [Compound 53, trans-2-decenoic acid octyl ester]	twice or more

Same assay, conditions: fetal rat cerebral cortex nerve cells, compound 500 μg/ml, 30 minutes, relative to control; listed as trans-2-decenic acid methyl ester

SMILES	ratio of phosphorylated MAP kinases to MAP kinases
CCCCCCC/C=C/C(=O)OC [Compound 7, trans-2-decenoic acid methyl ester]	6 times
